This is an account of results in ChEMBL document CHEMBL5606460, “ASAP - DENV-2 NS2B-NS3 protease fluorescence single point” (2024).

In general, inhibition refers to the drop in the measured response relative to a control, in per cent.

Experiment [1] addresses Genome polyprotein (dengue virus type 2) (UniProt P29990). The note with it: Thailand/16681/1984, Concentration 25.0 uM, Number of replicates 1.0.
For experiment [2] the target is unchanged.
[3] abbreviates: Thailand/16681/1984, Concentration 50.0 uM, Number of replicates 1.0.
The mark [4] stands for this setting: Thailand/16681/1984, Concentration 100.0 uM, Number of replicates 1.0.
[5] abbreviates: Thailand/16681/1984, Concentration 150.0 uM, Number of replicates 1.0.
Where [6] appears, read: Thailand/16681/1984, Concentration 200.0 uM, Number of replicates 1.0.

With `O=Cc1ccc(N2CCC(C(=O)O)CC2)cc1`, the inhibition in experiment [1] was found to be 47.6%.

For `Cc1c(C=O)c2ccccn2c1C#N`, the inhibition in experiment [1] was found to be 30.7%.

On to `O=Cc1ccc(N2CCCCC2)cc1`, for which the inhibition in experiment [1] stood at 37.1%.

Turning to `O=Cc1ccc(N2CCC(C(=O)O)CC2)o1`, in experiment [1], the inhibition stood at 40.9%.

For `Cc1cc(NS(=O)(=O)c2ccc(S(=O)(=O)F)cc2)c[nH]c1=O`, in experiment [1], the inhibition was found to be 19.6%.

On to `c1nnc(SCCCSc2nncs2)s1`, for which the inhibition in experiment [2] (setting [3]) is -6.11%; in experiment [2] (setting [4]) it was -7.13%; in experiment [2] (setting [5]), -4.63%; in experiment [2] (setting [6]), -0.768%.

For the compound `Nc1ccc2ccc(B(O)O)cc2c1`, in experiment [1], the inhibition was found to be 15.2%.

Consider `COC(=O)c1cc2scc(Br)c2[nH]1`, for which the inhibition in experiment [2] (setting [3]) is -5.44%; in experiment [2] (setting [4]) it was 11.7%; in experiment [2] (setting [6]) it was 7.72%.

With `Cn1c(Sc2nc3ccccc3o2)nc2sccc2c1=O`, the inhibition in experiment [2] (setting [3]) was -1.81%; in experiment [2] (setting [4]) it was 6.37%; in experiment [2] (setting [5]), -7.45%; in experiment [2] (setting [6]) it was -0.609%.

For `Cc1nc(C=O)c2ccccn12`, the inhibition in experiment [1] turned out to be 33.3%.

Consider `O=C(O)c1c(Br)sc2nnsc12`, for which the inhibition in experiment [2] (setting [3]) is -3.57%; in experiment [2] (setting [4]), -5.37%; in experiment [2] (setting [5]), -5.55%; in experiment [2] (setting [6]) it was 4.97%.

For `O=Cc1ccc(N2CCCCCC2)cc1`, the inhibition in experiment [1] worked out at 32.8%.

On to `COc1ccc2c(O)nn(S(=O)(=O)c3ccc(C(=O)O)cc3)c2c1`, for which the inhibition in experiment [2] (setting [4]) was 5.93%; in experiment [2] (setting [6]), -6.38%.

For `c1ccc(C2CCN(Cc3ccc4nccnc4c3)CC2)nc1`, the inhibition in experiment [2] (setting [3]) was -8.13%; in experiment [2] (setting [4]) it was 3.52%; in experiment [2] (setting [5]) it was -6.13%; in experiment [2] (setting [6]), -1.29%.

As to `CN(C)c1ccc(C=C(C#N)C(N)=O)cc1`, the inhibition in experiment [1] turned out to be 20.8%.

For `N#Cc1ccc(S(=O)(=O)CCn2nc(-c3ccco3)oc2=O)cc1`, the inhibition was -4.79% in experiment [2] (setting [3]), 5.55% in experiment [2] (setting [4]) and 2.14% in experiment [2] (setting [6]).

With `N=C(N)NCCC[C@H](NC(=O)[C@H](Cc1ccc(CN)cc1)NC(=O)c1ccccc1)B(O)O`, the inhibition stood at 13.2% in experiment [2] (Thailand/16681/1984, Concentration 0.103 uM, Number of replicates 2.0, Standard deviation 1.1552277516231042 %); 39.2% in experiment [2] (Thailand/16681/1984, Concentration 0.309 uM, Number of replicates 2.0, Standard deviation 1.403761128919186 %); 73.2% in experiment [2] (Thailand/16681/1984, Concentration 0.926 uM, Number of replicates 2.0, Standard deviation 1.9316423333512027 %); 91.6% in experiment [2] (Thailand/16681/1984, Concentration 2.78 uM, Number of replicates 2.0, Standard deviation 0.6346068363669732 %); 97.4% in experiment [2] (Thailand/16681/1984, Concentration 8.33 uM, Number of replicates 2.0, Standard deviation 0.06829499639101128 %); 98.5% in experiment [2] (Thailand/16681/1984, Concentration 25.0 uM, Number of replicates 2.0, Standard deviation 0.08100823932985672 %).

On to `O=C(NCc1nccs1)c1sccc1Cl`, for which the inhibition in experiment [2] (setting [3]) was 0.507%; in experiment [2] (setting [4]) it was 4.39%; in experiment [2] (setting [5]), -3.58%; in experiment [2] (setting [6]), -1.05%.

As for `COCc1nn(CC#Cc2ccc(Cl)cc2)c(=O)o1`, the inhibition in experiment [2] (setting [3]) is -7.03%; in experiment [2] (setting [4]), 5.18%; in experiment [2] (setting [5]) it was -4.23%; in experiment [2] (setting [6]), 2.77%.

`c1cc2sccc2c(N2CCN(Cc3ccc4cn[nH]c4c3)CC2)n1`: the inhibition in experiment [2] (setting [4]) is 8.61%; in experiment [2] (setting [6]), -0.953%.

On to `c1csc(-c2nnc(Sc3ncnc4sccc34)o2)c1`, for which the inhibition in experiment [2] (setting [3]) is -7.64%; in experiment [2] (setting [4]) it was 5.5%; in experiment [2] (setting [5]), 1.07%; in experiment [2] (setting [6]) it was 9.38%.

Turning to `Brc1cccc2cn(Cc3ncccn3)nc12`, the inhibition in experiment [2] (setting [3]) is -7.17%; in experiment [2] (setting [4]) it was 6.27%; in experiment [2] (setting [5]), -8.46%; in experiment [2] (setting [6]) it was 14.4%.

On to `O=c1c2cccn2cnn1Cc1cnc(Cl)s1`, for which the inhibition was -5.2% in experiment [2] (setting [3]), 0.188% in experiment [2] (setting [4]), -0.072% in experiment [2] (setting [5]) and 7.35% in experiment [2] (setting [6]).

Take `O=S(=O)(c1cccs1)N1CCN(CC=Cc2ccccc2)CC1`: the inhibition in experiment [2] (setting [3]) is -7.46%; in experiment [2] (setting [4]), 21.8%; in experiment [2] (setting [5]), -8.18%; in experiment [2] (setting [6]) it was 2.78%.

For the compound `N=C(N)NCCC[C@H](NC(=O)c1nccs1)C(=O)N[C@@H](CCCCN)C(=O)N[C@@H](C(N)=O)c1ccc(OCc2ccc(C(F)(F)F)cc2)cc1`, the inhibition is -3.85% in experiment [2] (Thailand/16681/1984, Concentration 0.309 uM, Number of replicates 2.0, Standard deviation 3.0176373786002046 %); 12.5% in experiment [2] (Thailand/16681/1984, Concentration 0.926 uM, Number of replicates 2.0, Standard deviation 1.4110895026482932 %); 36.5% in experiment [2] (Thailand/16681/1984, Concentration 2.78 uM, Number of replicates 2.0, Standard deviation 1.2681150356250568 %); 69.8% in experiment [2] (Thailand/16681/1984, Concentration 8.33 uM, Number of replicates 2.0, Standard deviation 1.3787183923415196 %); 89.5% in experiment [2] (Thailand/16681/1984, Concentration 25.0 uM, Number of replicates 2.0, Standard deviation 1.0239143117161142 %).

`FC(F)(F)c1nnc(COc2cncnc2)s1`: the values for the inhibition in experiment [2] (setting [4]) and in experiment [2] (setting [6]) were -9.02% and -8.02%, respectively.

Consider `[O-][S@@+](Cc1nc(-c2cccs2)no1)c1cccs1`, for which the inhibition in experiment [2] (setting [3]) came out at 0.907%; in experiment [2] (setting [4]), 3.98%; in experiment [2] (setting [6]), 5.82%.

For the compound `O=S(=O)(CCOc1ccccc1)c1nccs1`, the inhibition is -5.02% in experiment [2] (setting [3]) and -2.8% in experiment [2] (setting [4]).

As to `Cc1c(C=O)c2ccccn2c1C(=O)c1ccncc1`, the inhibition in experiment [1] turned out to be 41.1%.

Regarding `O=c1c2ccccc2nnn1CSc1nnc(-c2ccccc2)o1`, the inhibition in experiment [2] (setting [3]) was found to be 2.98%; in experiment [2] (setting [4]), 36.2%; in experiment [2] (setting [5]), 31.6%; in experiment [2] (setting [6]) it was 52.5%.

For `N#Cc1csc(CSc2nnc(C(F)(F)F)s2)n1`, the figures for the inhibition in experiment [2] (setting [4]) and in experiment [2] (setting [5]) were -9.01% and -4.46%, respectively.

Consider `COc1nc(Cl)c(CSc2nc(C)co2)s1`, for which the inhibition in experiment [2] (setting [4]) was 2.83%; in experiment [2] (setting [5]) it was -6.96%; in experiment [2] (setting [6]), 12.2%.

Turning to `Cc1nnsc1Cn1ccc(Br)n1`, the inhibition in experiment [2] (setting [3]) was -5.41%; in experiment [2] (setting [4]), 0.654%; in experiment [2] (setting [5]) it was -3.97%; in experiment [2] (setting [6]), -4.2%.

With `O=c1c2ccccc2ncn1CCCn1cnc2ccccc2c1=O`, the inhibition was determined as 4.08% in experiment [2] (setting [4]) and 1.74% in experiment [2] (setting [6]).

`O=Cc1nc(-c2ccccc2Cl)n2ccccc12`: the inhibition in experiment [1] turned out to be 20.2%.

Turning to `c1ccc2nc(SCc3cn4ccccc4n3)cnc2c1`, the inhibition was -5.61% in experiment [2] (setting [3]), 10.2% in experiment [2] (setting [4]), 7.18% in experiment [2] (setting [5]) and 30.9% in experiment [2] (setting [6]).

In the case of `Nc1nc(S(=O)(=O)c2ccccc2)c(Cl)s1`, the inhibition in experiment [2] (setting [4]) is -1.35%.

With `CC[C@H]1CO[C@H](C)CN1c1ccc(C=O)cn1`, the inhibition in experiment [1] amounted to 41.1%.

Regarding `Clc1snnc1CN1CCC(c2nc3ccccc3o2)CC1`, the inhibition in experiment [2] (setting [3]) is -8.6%; in experiment [2] (setting [4]), 2.94%; in experiment [2] (setting [5]), -7.28%; in experiment [2] (setting [6]), 8.81%.
